Data taken from US20030032774A1, “Novel opioid peptides for the treatment of pain” (priority 1994, published 2003).
Like-named read-outs stand apart in the source and are kept apart here. Square brackets hold non-standard residues; d marks the D form. Peptide text beside a SMILES is read from it. * marks the point of attachment. Phe(4-NO2) = N[C@@H](Cc1ccc([N+](=O)[O-])cc1)C(=O)O; Phe(4-N3) = [N-]=[N+]=Nc1ccc(C[C@H](N)C(=O)O)cc1; 1Nal = N[C@@H](Cc1cccc2ccccc12)C(=O)O; 2Nal = N[C@@H](Cc1ccc2ccccc2c1)C(=O)O; NMeF = CN[C@@H](Cc1ccccc1)C(=O)O; Tic = O=C(O)[C@@H]1Cc2ccccc2CN1; dNle = CCCC[C@@H](N)C(=O)O; dAbu = CC[C@@H](N)C(=O)O; Ac5c = NC1(C(=O)O)CCCC1; Aib = CC(C)(N)C(=O)O; Bn = c1ccc(C*)cc1

Legend:
μ receptor = biological target: T1, μ receptor (Rattus norvegicus, UniProt P33535); experiment: Radioligand binding assay, μ opioid receptor ((3H)-DAMGO, brain membranes)
T1 construct: the brains (minus the cerebellum) were removed, placed in ice-cold saline solution, and then homogenized; from tissue; host or cells: rat brain (minus cerebellum) membranes
T1 sequence (P33535 whole entry): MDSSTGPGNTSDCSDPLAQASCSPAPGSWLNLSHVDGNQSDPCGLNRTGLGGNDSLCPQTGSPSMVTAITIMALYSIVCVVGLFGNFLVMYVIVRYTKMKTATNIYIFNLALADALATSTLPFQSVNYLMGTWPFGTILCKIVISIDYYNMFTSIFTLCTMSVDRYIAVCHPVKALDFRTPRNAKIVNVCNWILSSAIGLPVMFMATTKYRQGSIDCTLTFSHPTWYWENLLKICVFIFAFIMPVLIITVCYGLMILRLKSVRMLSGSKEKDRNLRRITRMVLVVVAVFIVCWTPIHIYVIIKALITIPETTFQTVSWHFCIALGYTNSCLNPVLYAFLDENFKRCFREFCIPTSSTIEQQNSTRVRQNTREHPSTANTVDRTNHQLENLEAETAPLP
Description: PBQ (phenyl-ρ-benzoquinone) induced writhing in mice is an assessment of both central and peripheral analgesia (see Sigmund, et al., Proc. Soc. Exp. Biol. Med. 95:729 (1957)). Central analgesia is determined by the inhibition of a hot-plate response in mice (see, Wolfe, et al., J. Pharmacol. Exp. Ther. 80:300 (1944)). Assays measuring opioid receptor binding affinities for μ and δ receptors as well as the GPI assay were determined through experimental protocol set out in Schiller et al. (Biophys. Res. Commun. 85:1322 (1975)). The references by Sigmund, et al., Wolfe, et al., and Schiller, et al. are each hereby incorporated by reference.
Male Sprague-Dawley rats weighing between 350-450 g were sacrificed by inhalation of CO2. The rats were decapitated and the brains (minus the cerebellum) were removed, placed in ice-cold saline solution, and then homogenized in ice-cold 50 mM Tris buffer pH 7.4 (10 ml/brain). Membranes were centrifuged at 14000 rpm for 30 min. at 4° C. The pellets were re-suspended in approximately 6 ml/brain of ice-cold Tris buffer 50 mM pH 7.4 and stored at −78° C. until ready for use. Protein quantification of the brain homogenate was conducted according to protein assay kit purchased (Bio-Rad).
(^3H)-DAMGO and (^3H)-DAGLE were used as radioligands for the μ and δ receptors, respectively. Radioligand 50 μl, membranes 100 μl, and serially diluted test compound were incubated for 1 hr at 22° C. Nonspecific binding was determined using a 500 fold excess of unlabeled ligand in the presence of tracer and membranes. Free ligand was separated from bound by filtration through Whatman GF/B paper (presoaked in polyethylenimine 1% aqueous solution) and rinsing with ice-cold 50 mM Tris pH 7.4 using a Brandel cell harvester. The filters were dried and radioactivity was counted in a 24 well microplate in the presence of 500 μl scintillant per well. Radioactivity was measured using a Wallace 1450 Microbeta counter. Ki's for the various compounds were determined from the IC50 according to the Cheng and Prusoff equation.

μ receptors = μ receptors (Cavia porcellus, UniProt P97266); experiment: Guinea Pig Ileum (GPI) assay, longitudinal muscle preparation
Chain of μ receptors (P97266 whole entry, looked up): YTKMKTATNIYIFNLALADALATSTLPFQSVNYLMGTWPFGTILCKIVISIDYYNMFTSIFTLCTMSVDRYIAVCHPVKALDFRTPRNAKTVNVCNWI
Description: The activity of the peptide compounds on μ receptors was determined using the Guinea Pig Ileum (GPI) assay (longitudinal muscle preparation) according to the procedures described in Schiller et al., Biophys. Res. Commun. 85:1322 (1975).

[1] = test system: PBQ induced writhing in mice; experiment: PBQ (phenylquinone)-induced writhing assay; assay type: in vivo, mouse; conditions: mouse s.c., 20 min post administration
Description: The test was performed on CD #1 male mice weighing between 18 and 22 g. Mice were weighed, marked and then injected, by the intraperitoneal route, with 0.3 ml/20 g by weight of a solution of phenylquinone at 0.02%. The contortions which appeared during a 15 minute time period following the injection were counted. The phenylquinone was injected at time intervals of 5, 20 or 60 minutes after administration of the compound (or medium, or standard) by subcutaneous route. It was injected at time intervals of 60 minutes after the administration of the compound (or medium, or standard) by oral route;
The 0.02% phenylquinone solution was prepared as follows: 20 mg of phenylquinone was dissolved in 5 ml ethanol 90% (Sigma). The dissolved phenylquinone was slowly added to 95 ml of distilled water continuously shaken and preheated (not boiled). The phenylquinone solution was, at all times protected from light and a new solution was prepared every day for the test. Each group usually contained 10 mice. If an antagonist, such as naloxone, was used, it was administered 20 minutes before the compound (or the medium, or the standard) by the intraperitoneal route.
Writhing assays were performed on CD#1 male mice weighing between […]. Assays were carried out as described in Example 3 and results are summarized below in Table 2.

Compound | Ki (μ receptor; Ki^μ, Table 1) [nM] | ED50(PBQ) [1] [mg/kg] | also measured
C[C@@H](NC(=O)[C@@H](N)Cc1ccc(O)cc1)C(=O)N[C@@H](Cc1c[nH]c2ccccc12)C(=O)N[C@@H](Cc1ccccc1)C(N)=O [BCH1784, H-Tyr-D-Ala-Trp-Phe-NH2] (H-Y[dA]WF-NH2) | 3.57 | >20 | IC50 (μ receptors; GPI(IC50), Table 1): 20 nM
CC(C)(NC(=O)[C@@H](N)Cc1ccc(O)cc1)C(=O)N[C@@H](Cc1ccccc1)C(=O)N[C@@H](Cc1ccccc1)C(N)=O [BCH754, H-Tyr-Aib-Phe-Phe-NH2] (H-Y[Aib]FF-NH2) |  | >20 | 
CCCC[C@@H](NC(=O)[C@@H](N)Cc1ccc(O)cc1)C(=O)N[C@@H](Cc1c[nH]c2ccccc12)C(=O)N[C@@H](Cc1c[nH]c2ccccc12)C(N)=O [BCH2217, H-Tyr-D-Nle-Trp-Trp-NH2] (H-Y[dNle]WW-NH2) |  | >5 | 
CC(C)[C@@H](NC(=O)[C@@H](N)Cc1ccc(O)cc1)C(=O)N[C@@H](Cc1ccccc1)C(=O)N[C@@H](Cc1ccccc1)C(N)=O [BCH2464, H-Tyr-D-Val-Phe-Phe-NH2] (H-Y[dV]FF-NH2) |  | >10 | 
CC(C)C[C@@H](NC(=O)[C@@H](N)Cc1ccc(O)cc1)C(=O)N[C@@H](Cc1ccccc1)C(=O)N[C@@H](Cc1ccccc1)C(N)=O [BCH2465, H-Tyr-D-Leu-Phe-Phe-NH2] (H-Y[dL]FF-NH2) |  | >10 | 
∇CH2Tyr-D-Ala-Phe-Phe-NH2 [BCH2202] |  | >10 | 
CCCC[C@@H](NC(=O)[C@@H](N)Cc1ccc(O)cc1)C(=O)N[C@@H](Cc1c[nH]c2ccccc12)C(=O)N[C@@H](Cc1ccccc1)C(N)=O [BCH2212, H-Tyr-D-Nle-Trp-Phe-NH2] (H-Y[dNle]WF-NH2) |  | >10 | 
C[C@@H](NC(=O)[C@@H](N)Cc1ccc(O)cc1)C(=O)N[C@@H](Cc1ccccc1)C(=O)N1Cc2ccccc2C[C@H]1C(N)=O [BCH1780, H-Tyr-D-Ala-Phe-Tic-NH2] (H-Y[dA]F[Tic]-NH2) | 12.7 |  | 
C[C@@H](NC(=O)[C@@H](N)Cc1ccc(O)cc1)C(=O)N[C@@H](Cc1ccc2ccccc2c1)C(=O)N[C@@H](Cc1cccc2ccccc12)C(N)=O [BCH758, H-Tyr-D-Ala-2′-Nal-1′-Nal-NH2] (H-Y[dA][2Nal][1Nal]-NH2) | 5.61 | >20 | 
C[C@@H](NC(=O)[C@@H](N)Cc1ccc(O)cc1)C(=O)N[C@H](Cc1ccccc1)C(=O)N[C@@H](Cc1ccccc1)C(N)=O [BCH1775, H-Tyr-D-Ala-D-Phe-Phe-NH2] (H-Y[dA][dF]F-NH2) |  |  | Ki (μ receptor): 26 nM; IC50 (μ receptors): 925 nM
CC[C@@H](NC(=O)[C@@H](N)Cc1ccc(O)cc1)C(=O)N[C@@H](Cc1ccccc1)C(=O)N[C@@H](Cc1ccccc1)C(N)=O [BCH2577, H-Tyr-D-Abu-Phe-Phe-NH2] (H-Y[dAbu]FF-NH2) |  | >10 | 
C[C@@H](NC(=O)[C@@H](N)Cc1ccc(O)cc1)C(=O)N[C@@H](Cc1ccccc1)C(=O)N[C@@H](CSCc1ccccc1)C(N)=O [BCH3240, H-Tyr-D-Ala-Phe-Cys(Bzl)NH2] (H-Y[dA]FC(Bn)-NH2) | 5.3 |  | IC50 (μ receptors; GPI(IC50), Table 1): 9.16 nM
C[C@@H](NC(=O)[C@@H](N)Cc1ccc(O)cc1)C(=O)N[C@@H](Cc1ccccc1)C(=O)N(C)[C@@H](Cc1ccccc1)C(N)=O [BCH1781, H-Tyr-D-Ala-Phe-Phe(NMe)-NH2] (H-Y[dA]F[NMeF]-NH2) | 22.6 |  | IC50 (μ receptors; GPI(IC50), Table 1): 241 nM
C[C@@H](NC(=O)[C@@H](N)Cc1ccc(O)cc1)C(=O)N[C@@H](Cc1cccc2ccccc12)C(=O)N[C@@H](Cc1cccc2ccccc12)C(N)=O [BCH1783, H-Tyr-D-Ala-1′-Nal-1′-Nal-NH2] (H-Y[dA][1Nal][1Nal]-NH2) | 2.88 | >20 | 
NC(=O)[C@H](Cc1ccccc1)NC(=O)[C@H](Cc1ccccc1)NC(=O)C1(NC(=O)[C@@H](N)Cc2ccc(O)cc2)CCCC1 [BCH2579, H-Tyr-Cle-Phe-Phe-NH2] (H-Y[Ac5c]FF-NH2) |  | >10 | 
C[C@@H](NC(=O)[C@@H](N)Cc1ccc(O)cc1)C(=O)N[C@@H](Cc1ccccc1)C(=O)N[C@@H](Cc1c[nH]c2ccccc12)C(N)=O [BCH1785, H-Tyr-D-Ala-Phe-Trp-NH2] (H-Y[dA]FW-NH2) | 2.21 | >20 | IC50 (μ receptors; GPI(IC50), Table 1): 16 nM
C[C@@H](NC(=O)[C@@H](N)Cc1ccc(O)cc1)C(=O)N[C@@H](Cc1c[nH]c2ccccc12)C(=O)N[C@@H](Cc1c[nH]c2ccccc12)C(N)=O [BCH1786, H-Tyr-D-Ala-Trp-Trp-NH2] (H-Y[dA]WW-NH2) | 0.833 | 10 | 
CCCC[C@@H](NC(=O)[C@@H](N)Cc1ccc(O)cc1)C(=O)N[C@@H](Cc1c[nH]c2ccccc12)C(=O)N[C@@H](Cc1ccc2ccccc2c1)C(N)=O [BCH2214, H-Tyr-D-Nle-Trp-2′-Nal-NH2] (H-Y[dNle]W[2Nal]-NH2) |  | 15 | 
H-Tyr-Chl-Phe-Phe-NH2 [BCH2578] |  | >10 | 
C[C@H](O)[C@@H](NC(=O)[C@@H](N)Cc1ccc(O)cc1)C(=O)N[C@@H](Cc1ccccc1)C(=O)N[C@@H](Cc1ccccc1)C(N)=O [BCH2811, H-Tyr-D-Thr-Phe-Phe-NH2] (H-Y[dT]FF-NH2) |  | 12 | 
NC(=O)[C@H](Cc1ccccc1)NC(=O)[C@H](Cc1ccccc1)NC(=O)[C@@H](Cc1ccccc1)NC(=O)[C@@H](N)Cc1ccc(O)cc1 [BCH753, H-Tyr-D-Phe-Phe-Phe-NH2] (H-Y[dF]FF-NH2) | 3.63 | >20 | IC50 (μ receptors; GPI(IC50), Table 1): 247 nM
CCCC[C@@H](NC(=O)[C@@H](N)Cc1ccc(O)cc1)C(=O)N[C@@H](Cc1ccccc1)C(=O)N[C@@H](Cc1c[nH]c2ccccc12)C(N)=O [BCH2208, H-Tyr-D-Nle-Phe-Trp-NH2] (H-Y[dNle]FW-NH2) |  | >3 | 
H-Tyr-∇Ala-Phe-Phe-NH2 [BCH1787] |  | 10 | 
C[C@@H](NC(=O)[C@@H](N)Cc1ccc(O)cc1)C(=O)N[C@@H](Cc1ccccc1)C(=O)N[C@@H](Cc1ccc(N=[N+]=[N-])cc1)C(N)=O [BCH1778, H-Tyr-D-Ala-Phe-Phe(4-N3)—NH2] (H-Y[dA]F[Phe(4-N3)]-NH2) | 1.49 |  | IC50 (μ receptors; GPI(IC50), Table 1): 50 nM
CC[C@@H](C)[C@@H](NC(=O)[C@@H](N)Cc1ccc(O)cc1)C(=O)N[C@@H](Cc1ccccc1)C(=O)N[C@@H](Cc1ccccc1)C(N)=O [BCH2473, H-Tyr-D-Ile-Phe-Phe-NH2] (H-Y[dI]FF-NH2) |  | >10 | 
N=C(N)NCCC[C@@H](NC(=O)[C@@H](N)Cc1ccc(O)cc1)C(=O)N[C@@H](Cc1ccccc1)C(=O)N[C@@H](CSCc1ccccc1)C(N)=O [BCH3241, H-Tyr-D-Arg-Phe-Cys(Bzl)NH2] (H-Y[dR]FC(Bn)-NH2) | 6.95 |  | IC50 (μ receptors; GPI(IC50), Table 1): 33 nM
C[C@@H](NC(=O)[C@@H](N)Cc1ccc(O)cc1)C(=O)N[C@@H](Cc1ccc([N+](=O)[O-])cc1)C(=O)N[C@@H](Cc1ccccc1)C(N)=O [BCH1779, H-Tyr-D-Ala-Phe(4-NO2)-Phe-NH2] (H-Y[dA][Phe(4-NO2)]F-NH2) | 56.8 |  | IC50 (μ receptors; GPI(IC50), Table 1): 77 nM
C[C@@H](NC(=O)[C@@H](N)Cc1ccc(O)cc1)C(=O)N[C@@H](Cc1c[nH]c2ccccc12)C(=O)N[C@@H](Cc1ccc2ccccc2c1)C(N)=O [BCH2213, H-Tyr-D-Ala-Trp-2′-Nal-NH2] (H-Y[dA]W[2Nal]-NH2) |  | >5 | 
CCCC[C@@H](NC(=O)[C@@H](N)Cc1ccc(O)cc1)C(=O)N[C@@H](Cc1ccccc1)C(=O)N[C@@H](Cc1ccc2ccccc2c1)C(N)=O [BCH2211, H-Tyr-D-Nle-Phe-2′-Nal-NH2] (H-Y[dNle]F[2Nal]-NH2) |  | >10 | 
